Data taken from patent publication US20240342196A1, “TARGETING SELECT LIPID SIGNALING TO COUNTER TYPE 1 DIABETES (T1D)” (The UAB Research Foundation, priority 2023, published 2024).

Key:
[1] = tested on: human polymorphonuclear leukocyte (PMNL); settings: read-out: EC50, reduction of human PMNL transendothelial migration; cited from earlier work
[2] = tested on: mouse model of peritonitis; settings: 10-100 ng dose; cited from earlier work
Th1 helper cells = test: IFN-γ production by Th1 helper cells in the NOD; format: cell-based, mouse
Excerpt: Type 1 diabetes (T1D) is a consequence of autoimmune destruction of pancreatic islet β-cells, but the involved processes remain unclear. […] The iPLA2β hydrolyzes membrane phospholipids at the sn-2 substituent to release a fatty acid (i.e., arachidonic acid), that is metabolized to generate proinflammatory (pi) lipids. We find that global reduction of iPLA2β reduces T1D incidence. Given the importance of T-lymphocytes in T1D development, we investigated the contribution of iPLA2β-derived lipids (iDLs) from T-lymphocytes with adoptive transfer and ex vitro functional approaches. The CD4^+/8^+ T-cells were purified from pre-diabetic female NOD and NOD.iPLA2β^+/− (HET) spleens. Different combinations of the cells (NOD4+8, NOD4+HET8, and NOD8+HET4) were then administered (i.p. 7.5×10^6: 2.5×10^6) to 4-week-old female immunodeficient NOD.scid mice. We find that scid recipients of a combination that included HET4 or HET8 had higher plasma insulin, decreased insulitis, and increased β-cell mass, compared to recipients of NOD4+NOD8.

NOD mice = test: T1D incidence in NOD mice; format: in vivo, mouse; settings: 30-week monitoring period, vehicle only 75%
Procedure: To determine the impact of their signaling on T1D incidence, we treated NOD mice with either GP or EC alone starting at 4 weeks of age or in combination, where GP was started at 4 weeks of age and EC was introduced at 10 weeks of age. T1D incidence was recorded when blood glucose levels ≥[…] were measured in two consecutive weeks.

EP4 [3] = target: T1, EP4 (Homo sapiens, UniProt P35408); settings: HEK293 cells expressing EP4; cited from earlier work
T1 sequence (P35408 whole entry): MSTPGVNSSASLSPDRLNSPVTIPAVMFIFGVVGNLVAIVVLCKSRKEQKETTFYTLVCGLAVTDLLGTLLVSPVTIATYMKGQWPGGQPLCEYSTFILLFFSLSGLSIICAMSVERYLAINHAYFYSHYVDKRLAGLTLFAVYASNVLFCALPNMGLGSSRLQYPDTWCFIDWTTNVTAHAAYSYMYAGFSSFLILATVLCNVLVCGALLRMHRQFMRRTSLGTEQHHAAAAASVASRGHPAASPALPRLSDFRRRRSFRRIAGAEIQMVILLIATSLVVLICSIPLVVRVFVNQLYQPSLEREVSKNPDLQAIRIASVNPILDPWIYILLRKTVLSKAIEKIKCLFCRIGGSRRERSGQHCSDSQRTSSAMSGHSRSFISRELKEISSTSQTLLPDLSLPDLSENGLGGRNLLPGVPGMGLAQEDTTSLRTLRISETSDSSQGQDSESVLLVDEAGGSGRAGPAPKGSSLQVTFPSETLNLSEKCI

EP2 = EP2 (Homo sapiens, UniProt P43116); settings: cited from earlier work
Chain of EP2 (P43116 whole entry): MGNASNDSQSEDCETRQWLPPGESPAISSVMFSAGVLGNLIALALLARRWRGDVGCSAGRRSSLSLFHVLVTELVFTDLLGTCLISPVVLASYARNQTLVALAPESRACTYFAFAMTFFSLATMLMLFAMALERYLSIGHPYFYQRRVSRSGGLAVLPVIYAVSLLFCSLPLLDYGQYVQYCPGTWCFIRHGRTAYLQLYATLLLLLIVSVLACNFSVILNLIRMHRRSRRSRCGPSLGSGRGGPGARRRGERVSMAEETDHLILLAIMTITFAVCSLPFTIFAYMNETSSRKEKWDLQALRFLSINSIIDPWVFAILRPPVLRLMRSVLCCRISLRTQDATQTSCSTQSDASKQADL

RAW 264.7 cells = settings: 10 μM; cited from earlier work
EP4 [4] = target: T1, EP4; settings: CHO cells expressing EP4; 10 μM; cited from earlier work
EP3 = target: T2, EP3 (Homo sapiens, UniProt P43115); settings: cited from earlier work
T2 sequence (P43115 1-390): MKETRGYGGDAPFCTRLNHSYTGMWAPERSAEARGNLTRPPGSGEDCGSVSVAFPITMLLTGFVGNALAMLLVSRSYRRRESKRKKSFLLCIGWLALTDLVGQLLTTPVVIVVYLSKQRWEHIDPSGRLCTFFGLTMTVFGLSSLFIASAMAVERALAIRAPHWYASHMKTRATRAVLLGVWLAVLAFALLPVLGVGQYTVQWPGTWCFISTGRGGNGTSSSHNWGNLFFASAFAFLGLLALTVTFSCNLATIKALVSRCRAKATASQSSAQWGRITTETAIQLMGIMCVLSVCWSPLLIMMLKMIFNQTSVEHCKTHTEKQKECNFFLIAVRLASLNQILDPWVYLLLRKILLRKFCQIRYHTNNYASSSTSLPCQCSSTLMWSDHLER

EP1 = target: T3, EP1 (Homo sapiens, UniProt P34995); settings: cited from earlier work
T3 sequence (P34995 1-402): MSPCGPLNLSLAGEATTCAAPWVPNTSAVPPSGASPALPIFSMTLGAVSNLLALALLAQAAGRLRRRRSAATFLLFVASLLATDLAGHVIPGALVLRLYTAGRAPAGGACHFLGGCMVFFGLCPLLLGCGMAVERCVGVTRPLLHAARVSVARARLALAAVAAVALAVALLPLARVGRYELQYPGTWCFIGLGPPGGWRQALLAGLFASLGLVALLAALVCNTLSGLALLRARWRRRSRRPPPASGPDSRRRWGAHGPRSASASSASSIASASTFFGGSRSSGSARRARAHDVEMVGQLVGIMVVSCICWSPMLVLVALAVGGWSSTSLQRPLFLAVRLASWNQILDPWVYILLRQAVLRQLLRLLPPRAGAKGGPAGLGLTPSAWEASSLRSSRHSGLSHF

HCA-7 colon cancer cells = settings: 10 μM; cited from earlier work
[5] = tested on: LPS-activated human macrophages; settings: 100 nM; cited from earlier work
young rats = settings: 10 mg/kg/day; cited from earlier work
human NK cells = settings: 0.01-10 μM, pretreatment 1 h, then 50 ng/ml IL-2, 0.33 μM PGE2, 18 hours; cited from earlier work
EP4 [6] = target: T1, EP4; settings: full antagonist; read-out: IC50 in the functional assay; cited from earlier work
NK cells = settings: cited from earlier work

Question: For `CC/C=C\C[C@@H](O)/C=C/C=C\C=C\C=C\[C@@H](O)[C@@H](O)C/C=C\CCC(=O)O` [17 (R)-epimer of RvD1], which EC50 [1] is on record?
Answer: ~30 nM

Question: And the “maximal inhibition of leukocyte infiltration” value [2]?
Answer: ~35%

Question: Which “IFN-γ production by Th1 helper cells” value (Th1 helper cells) does the source give for `CC[C@H](C)C(=O)N1CCC(NC(=O)Nc2ccc(OC(F)(F)F)c(F)c2)CC1` [EC5026] here?
Answer: significantly reduced

Question: What about the T1D incidence (NOD mice) of the same compound?
Answer: without effect

Question: With `C/C=C/c1nnn(Cc2ccc(C(F)(F)F)cc2)c1C(=O)N[C@@H](C)c1ccc(C(=O)O)cc1` [EP4 receptor antagonist 1] as the compound, how does the “PGE2-induced β-arrestin recruitment” value (EP4 [3]) read?
Answer: inhibits

Question: What about the IC50 (EP2) of the same compound?
Answer: > 10 µM

Question: And the “GM-CSF-induced expression of II1b, II4ra, II6, Arg1, Cox2, and II10” value (RAW 264.7 cells)?
Answer: decreases

Question: What about the “ERK phosphorylation induced by PGE2” value (EP4 [4]) of the same compound?
Answer: reverses

Question: And the IC50 (EP3)?
Answer: > 10 µM

Question: And the IC50 (EP1)?
Answer: > 10 µM

Question: For `CCCCc1nn(-c2ccccc2C(F)(F)F)c(=O)n1Cc1ccc(-c2ccccc2S(=O)(=O)NC(=O)c2sccc2C)cc1` [L-161,982], which PGE2-induced cell proliferation (HCA-7 colon cancer cells) is on record?
Answer: blocks

Question: And the “anti-inflammatory action of PGE2” value [5]?
Answer: reverses

Question: What about the PGE2-stimulated bone formation (young rats) of the same compound?
Answer: suppresses

Question: What does the source list for `O=C(O)c1ccc(C2(NC(=O)c3cccc4ccn(Cc5ccc(C(F)(F)F)cc5)c34)CC2)cc1` [MF-766]?
Answer: PGE2-suppressed IFN-γ secretion (human NK cells): reverses; IC50 (EP4 [6]): 1.4 nM; NK cell viability (NK cells): not affected

Question: For `CC/C=C\C[C@H](O)/C=C/C=C\C=C\C=C\[C@@H](O)[C@@H](O)C/C=C\CCC(=O)O` [RvD1], which EC50 [1] is on record?
Answer: ~30 nM

Question: What about the “maximal inhibition of leukocyte infiltration” value [2] of the same compound?
Answer: ~35%

Question: Which “IFN-γ production by Th1 helper cells” value (Th1 helper cells) does the source give for `CCc1nc2c(C)nc(C)cc2n1-c1ccc(CCNC(=O)NS(=O)(=O)c2ccc(C)cc2)cc1` [grapiprant] here?
Answer: significantly reduced

Question: And the T1D incidence (NOD mice)?
Answer: 50%
